Data: article PMC9400670, “Establishing the selective phospholipid membrane coordination, permeation and lysis properties for a series of ‘druggable’ supramolecular self-associating antimicrobial amphiphiles” (Chemical Science, 2022)

System: DPH-labelled synthetic vesicles
Assay: Synthetic vesicle membrane fluidity assay (DPH fluorescence polarisation)
Conditions: increasing SSA concentration; polar phospholipid membranes, excluding PC only; 298 K
Description: To further explore the effects of SSAs on physical phospholipid membrane characteristics, membrane fluidity experiments were performed. Here a dye (1,6-diphenyl-1,3,5-hexatriene – DPH) was inserted into the synthetic vesicle membrane to enable the study of increased/decreased membrane fluidity through competitive fluorescence polarisation (FP) measurements. In these studies, FP values are found to decrease with increasing membrane fluidity and vice versa. However, these studies could only be performed with SSAs 1–4 and 7 due to overlapping SSA/DHP fluorescence emission.
Section 2: General Methods […]
All solvents and starting materials were purchased from known chemical suppliers or available stores and used without any further purification unless specifically stipulated. […] Fluorescence and fluorescence polarisation measurements were conducted using a Clariostar plate reader and analysed using MARS data analysis […]
Preparation of calcein loaded vesicles: Lipid films were resuspended in buffer A (70 mM calcein, 10 mM TRIS pH 8.5, 0.5 mM EDTA, 110 mM NaCl, pH adjusted to 6-7) and subjected to 9 freeze-thaw cycles in liquid nitrogen and extruded 20 times through a 200 nm polycarbonate membrane. […] The hydrodynamic dimeter of the lipids was monitored using an Anton Paar LitesizerTM 500 to ensure the separation of free and entrapped calcein. […]

Structure (SMILES): O=C(O)CNC(=O)Nc1ccc(C(F)(F)F)cc1 [SSA 4]
- overall change in FP (membrane fluidity): > 10%
